Laboratory results as given in ChEMBL document CHEMBL2046397, “Design and synthesis of 5-(substituted benzylidene)thiazolidine-2,4-dione derivatives as novel tyrosinase inhibitors” (Eur J Med Chem, 2012).
The source made the active and inactive calls. The calls are words filed in the database; no cut-off is given here.

How the values were obtained:
B16 [1] = test: Cytotoxicity against mouse B16 cells at 0.1 to 10 uM after 8 hrs by MTT assay; assay type: cell-based; conditions: b16, 8 h
Tyrosinase = molecular target: T1, Tyrosinase (Agaricus bisporus, UniProt O42713); test: Inhibition of mushroom tyrosinase activity using L-tyrosine as substrate after 30 mins by spectrophotometric analysis
T1 sequence (O42713 whole entry): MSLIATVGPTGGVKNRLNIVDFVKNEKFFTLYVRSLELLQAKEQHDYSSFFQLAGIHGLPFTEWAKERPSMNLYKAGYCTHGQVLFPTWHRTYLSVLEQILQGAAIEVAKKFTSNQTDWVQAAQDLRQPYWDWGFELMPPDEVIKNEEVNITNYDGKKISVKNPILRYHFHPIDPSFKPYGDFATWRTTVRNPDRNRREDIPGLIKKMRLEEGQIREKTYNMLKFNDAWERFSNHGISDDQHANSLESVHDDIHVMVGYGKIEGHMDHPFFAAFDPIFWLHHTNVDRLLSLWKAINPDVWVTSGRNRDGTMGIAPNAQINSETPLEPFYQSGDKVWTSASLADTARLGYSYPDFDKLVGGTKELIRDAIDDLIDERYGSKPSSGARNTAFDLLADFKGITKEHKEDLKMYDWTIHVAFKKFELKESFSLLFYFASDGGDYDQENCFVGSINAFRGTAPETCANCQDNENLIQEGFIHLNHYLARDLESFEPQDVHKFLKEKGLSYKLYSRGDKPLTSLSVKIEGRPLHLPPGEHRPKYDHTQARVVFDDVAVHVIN

[2] = molecular target: T2, Tyrosinase (Agaricus bisporus) (UniProt O42713); test: Competitive inhibition of mushroom tyrosinase using L-tyrosine as substrate assessed increase in Km L-tyrosine by Line-Weaver-Burk plot analysis
T2 sequence (whole entry): T1 sequence (O42713 whole entry)

B16 [3] = test: Antimelanogenic activity in mouse B16 cells assessed as inhibition of alpha-MSH-induced melanin formation after 24 hrs by spectrophotometric assay; assay type: functional, cell-based
[4] = molecular target: T3, Tyrosinase (Mus musculus) (UniProt P11344); test: Inhibition of MSHalpha-stimulated tyrosinase activity in mouse B16 cells using L-DOPA as substrate after 24 hrs by […]; assay type: cell-based
T3 sequence (whole entry): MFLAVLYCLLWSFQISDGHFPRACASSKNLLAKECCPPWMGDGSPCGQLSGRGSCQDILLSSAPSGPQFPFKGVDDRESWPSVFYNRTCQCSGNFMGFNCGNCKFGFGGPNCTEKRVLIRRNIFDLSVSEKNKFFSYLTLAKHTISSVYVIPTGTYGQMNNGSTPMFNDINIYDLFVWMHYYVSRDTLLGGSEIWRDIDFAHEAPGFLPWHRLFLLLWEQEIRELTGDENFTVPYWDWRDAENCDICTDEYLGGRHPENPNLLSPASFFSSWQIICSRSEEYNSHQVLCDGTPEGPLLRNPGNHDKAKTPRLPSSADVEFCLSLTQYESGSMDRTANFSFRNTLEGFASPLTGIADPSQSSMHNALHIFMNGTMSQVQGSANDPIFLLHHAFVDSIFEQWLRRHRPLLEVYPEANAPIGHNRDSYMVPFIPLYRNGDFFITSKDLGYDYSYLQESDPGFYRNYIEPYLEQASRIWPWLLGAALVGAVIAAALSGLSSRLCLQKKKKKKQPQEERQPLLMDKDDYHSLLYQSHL

[5] = molecular target: T2, Tyrosinase (Agaricus bisporus); test: Competitive inhibition of mushroom tyrosinase using L-tyrosine as substrate at 1.25 uM by Line-Weaver-Burk plot analysis
[6] = molecular target: T2, Tyrosinase (Agaricus bisporus); test: Competitive inhibition of mushroom tyrosinase using L-tyrosine as substrate at 20 uM by Line-Weaver-Burk plot analysis

Compound	Activity (B16 [1])	IC50 (Tyrosinase) [µM]	inhibition [2]	inhibition (B16 [3])	inhibition [4]	Kic [5] [×10⁻⁷ M]	Kic [6] [µM]
O=C1NC(=O)/C(=C/c2ccc(O)cc2)S1	Non-toxic	13.4	Active	Dose-dependent effect	Active	3.74	0.84
COc1ccc(/C=C2\SC(=O)NC2=O)cc1O	Non-toxic	9.87	Active	Dose-dependent effect	Active	4.13	1.38
